From patent US12285012B2, “Compositions comprising pyridine carboxylate herbicides with acetolactate synthase (ALS) inhibitor herbicides” (Corteva Agriscience LLC, priority 2018, dated 2025)

Legend:
Experiment in all cases: Greenhouse postemergence herbicidal effect
Type in all cases: in vivo
[1] = tested on: chickweed (STEME, Stellaria media); settings: 8.75 g/ha
Experimental: (§1) The plants were grown for 7-36 days (d) in a greenhouse with an approximate 14-hour (h) photo-period which was maintained at about 23° C. during the day and 22° C. during the night. Nutrients and water were added on a regular basis and supplemental lighting was provided with overhead metal halide 1000-Watt lamps as necessary. The plants were employed for testing when they reached the second or third true leaf stage.
(§2) The emulsifiable concentrates also included a safener, cloquintocet-mexyl, at 120 grams active ingredient per liter (g ai/L), unless otherwise noted below.
(§3) Control plants were sprayed in the same manner with the solvent blank. All pyridine carboxylate herbicide (component a) application rates are given as “g ae/ha” and all ALS inhibitor (component b) application rates are given as “g ai/ha.”
(§4) The treated plants and control plants were placed in a greenhouse as described above and watered by sub-irrigation to prevent wash-off of the test compounds. After 20-22 d, the condition of the test plants as compared with that of the control plants was determined visually and scored on a scale of 0 to 100 percent where 0 corresponds to no injury and 100 corresponds to complete kill.

[2] = tested on: wild mustard (SINAR, Sinapis arvensis)
Experimental: as §1, §2, §3, §4

[3] = tested on: Canadian thistle (CIRAR, Cirsium arvense)
Experimental: as §1, §2, §3, §4

[4] = tested on: wild buckwheat (POLCO, Polygonum convolvulus); settings: for % visual injury, Obs: 8.75 g/ha
Experimental: as §1, §2, §3, §4

[5] = tested on: winter rape (BRSNW, Brassica napus)
Experimental: as §1, §2, §3, §4

[6] = tested on: wild chamomile (MATCH, Matricaria chamomilla)
Experimental: as §1, §2, §3, §4

[7] = tested on: pigweed (AMARE, Amaranthus retroflexus); settings: for % visual injury, Obs: 8.75 g/ha
Experimental: as §1, §2, §3, §4

[8] = tested on: wild pansy (VIOTR, Viola tricolor); settings: 8.75 g/ha
Experimental: as §1, §2, §3, §4

[9] = tested on: broad-leaf dock (RUMOB, Rumex obtusifolius); settings: 8.75 g/ha
Excerpt: (§5) Seeds of the desired test plant species were planted in a 90:10% v/v (volume/volume) mixture of PRO-MIX® BX (Premier Tech Horticulture, Quakertown, PA, USA) and PROFILE® GREENS GRADE™ (Profile Products LLC, Buffalo Grove, IL, USA) planting mixture, which typically has a pH of 5.2 to 6.2 and an organic matter content of at least 50 percent, in plastic pots with a surface area of 103.2 square centimeters (cm^2). In some aspects, to ensure good germination and healthy plants, a fungicide treatment and/or other chemical or physical treatment was applied. The plants were grown for 7-36 days (d) in a greenhouse with an approximate 14-hour (h) photo-period which was maintained at about 23° C. during the day and 22° C. during the night. Nutrients and water were added on a regular basis and supplemental lighting was provided with overhead metal halide 1000-Watt lamps as necessary. The plants were employed for testing when they reached the second or third true leaf stage.
(§6) Emulsifiable concentrates of each of each pyridine carboxylate herbicide (Compound A or Compound B) were prepared at 100 grams acid equivalent per liter (g ae/L). The emulsifiable concentrates also included a safener, cloquintocet-mexyl, at 120 grams active ingredient per liter (g ai/L), unless otherwise noted below. An aliquot of each emulsifiable concentrate was placed in a 25 mL glass vial and diluted with an aqueous mixture of 1.25% (v/v) ACTIROB® B esterified rapeseed oil (Bayer Crop Science, Research Triangle Park, NC, USA) or MSO® Concentrate with LECI-TECH® methylated soybean oil (Loveland Products, Loveland, CO, USA) to obtain concentrated stock solutions at the highest application rate for each herbicide, based upon a 12 milliliter (mL) application volume at a rate of 187 liters per hectare (L/ha). The concentrated stock solutions were further diluted with an aqueous mixture of 1.25% v/v ACTIROB® B or MSO® Concentrate with LECI-TECH® to obtain stock solutions at reduced application rates for each herbicide. Spray solutions of the herbicide combinations (Compound A or Compound B plus ALS herbicide) were prepared by adding weighed amounts or aliquots of the ALS herbicides to the stock solutions of Compound A or Compound B to form 12-mL spray solutions in two- or three-way combinations.
(§7) The spray solutions were applied to the plant material with an overhead Mandel track sprayer equipped with 8002E nozzles calibrated to deliver 187 L/ha over an application area of 0.503 square meters (m^2) at a spray height of 18 inches (43 centimeters (cm)) above the average plant canopy. Control plants were sprayed in the same manner with the solvent blank. All pyridine carboxylate herbicide (component a) application rates are given as “g ae/ha” and all ALS inhibitor (component b) application rates are given as “g ai/ha.”
as §4

[10] = tested on: velvetleaf (ABUTH, Abutilon theophrasti); settings: 8.75 g/ha
Excerpt: as §5, §6, §7, §4

[11] = tested on: soybean (GLXMA, Glycine max); settings: 8.75 g/ha
Excerpt: as §5, §6, §7, §4

[12] = tested on: ivyleaf morningglory (IPOHE, Ipomoea hederacea); settings: 8.75 g/ha
Excerpt: as §5, §6, §7, §4

[13] = tested on: common sunflower (HELAN, Helianthus annuus); settings: 8.75 g/ha
Excerpt: as §5, §6, §7, §4

[14] = tested on: kochia (KCHSC, Kochia scoparia)
Experimental: as §5, with “In some aspects, to ensure good germination and healthy plants, a fungicide treatment and/or other chemical or physical treatment was applied.” left out
as §6, §7, §4

[15] = tested on: common lambsquarters (CHEAL, Chenopodium album L.); settings: for % visual injury, Obs: 8.75 g/ha
Experimental: as §5, with “In some aspects, to ensure good germination and healthy plants, a fungicide treatment and/or other chemical or physical treatment was applied.” left out
as §6, §7, §4

Compound	% visual injury, Obs [1]	% visual injury, Obs [4]	% visual injury, Obs [7]	% visual injury, Obs [8]	% visual injury, Obs [9]	% visual injury, Obs [10]	% visual injury, Obs [11]	% visual injury, Obs [12]	% visual injury, Obs [13]	% visual injury, Obs [15]	other results
halosulfuron	0%	5%	40%	15%	0%	95%	78%	0%	100%	0%	% visual injury ([2]; Halosulfuron 8.75 g/ha): 95%; % visual injury, Obs ([3]; 8.75 g/ha): 10%; % visual injury ([3]; Halosulfuron 8.75 g/ha): 40%; % visual injury ([4]; Halosulfuron 8.75 g/ha): 63%; % visual injury ([5]; Halosulfuron 8.75 g/ha): 88%; % visual injury ([6]; Halosulfuron 8.75 g/ha): 78%; % visual injury ([7]; Halosulfuron 8.75 g/ha): 95%; % visual injury, Obs ([14]; 8.75 g/ha): 0%; % visual injury ([14]; Halosulfuron 8.75 g/ha): 15%; % visual injury ([15]; Halosulfuron 8.75 g/ha): 10%
CCS(=O)(=O)c1nc2ccccn2c1S(=O)(=O)NC(=O)Nc1nc(OC)cc(OC)n1 [Sulfosulfuron, sulfosulfuron]	53%	5%	40%	55%	0%	30%	85%	78%	100%	0%	% visual injury ([2]; Sulfosulfuron 140 g/ha): 99%; pest or weed control at 8.75 g/ha ([3]; Cirsium arvense, post-emergence, 8.75 g/ha, read-out: % visual injury, Obs): 5%; % visual injury ([3]; Sulfosulfuron 140 g/ha): 45%; % visual injury ([4]; Sulfosulfuron 140 g/ha): 83%; % visual injury ([5]; Sulfosulfuron 140 g/ha): 98%; % visual injury ([6]; Sulfosulfuron 140 g/ha): 73%; % visual injury ([7]; Sulfosulfuron 140 g/ha): 88%; pest or weed control at 8.75 g/ha ([14]; Bassia scoparia, post-emergence, 8.75 g/ha, read-out: % visual injury, Obs): 0%; % visual injury ([14]; Sulfosulfuron 140 g/ha): 8%; % visual injury ([15]; Sulfosulfuron 140 g/ha): 43%
